According to ChEMBL document CHEMBL1201862, “PubChem BioAssay data set” (2004):
Blank lines part the entries; values can stand above or below the molecule they belong to. The source made the active and inactive calls. Unless noted, no cut-off for these calls is given here.

Assays:
Format in all cases: functional
Vero = assay: viability of Vero cells under compound – cytotoxicity control for flavivirus capping enzyme inhibitors (AID 588742); conditions: Chlorocebus sabaeus
[1] = target: Glutathione-S-transferase (Schistosoma japonicum, UniProt Q26513); assay: GST-antibody interaction or FRET quenching – biochemical, TR-FRET, artefact control for Vif-APOBEC3G degradation inhibitor project, dose response (AID 1117362)
Sequence of Glutathione-S-transferase (Q26513 whole entry): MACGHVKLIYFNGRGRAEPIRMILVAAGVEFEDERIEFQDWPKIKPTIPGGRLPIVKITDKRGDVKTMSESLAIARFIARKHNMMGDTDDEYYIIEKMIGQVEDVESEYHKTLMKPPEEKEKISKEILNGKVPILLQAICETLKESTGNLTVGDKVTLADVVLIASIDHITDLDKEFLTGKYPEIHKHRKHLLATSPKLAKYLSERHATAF

[2] = target: Metabotropic glutamate receptor 7 (Homo sapiens, UniProt Q14831); assay: potentiation of glutamate EC20 at mGlu7 – cell-based, calcium mobilization, Galpha15, dose response (AID 743384)
Sequence of Metabotropic glutamate receptor 7 (Q14831 whole entry): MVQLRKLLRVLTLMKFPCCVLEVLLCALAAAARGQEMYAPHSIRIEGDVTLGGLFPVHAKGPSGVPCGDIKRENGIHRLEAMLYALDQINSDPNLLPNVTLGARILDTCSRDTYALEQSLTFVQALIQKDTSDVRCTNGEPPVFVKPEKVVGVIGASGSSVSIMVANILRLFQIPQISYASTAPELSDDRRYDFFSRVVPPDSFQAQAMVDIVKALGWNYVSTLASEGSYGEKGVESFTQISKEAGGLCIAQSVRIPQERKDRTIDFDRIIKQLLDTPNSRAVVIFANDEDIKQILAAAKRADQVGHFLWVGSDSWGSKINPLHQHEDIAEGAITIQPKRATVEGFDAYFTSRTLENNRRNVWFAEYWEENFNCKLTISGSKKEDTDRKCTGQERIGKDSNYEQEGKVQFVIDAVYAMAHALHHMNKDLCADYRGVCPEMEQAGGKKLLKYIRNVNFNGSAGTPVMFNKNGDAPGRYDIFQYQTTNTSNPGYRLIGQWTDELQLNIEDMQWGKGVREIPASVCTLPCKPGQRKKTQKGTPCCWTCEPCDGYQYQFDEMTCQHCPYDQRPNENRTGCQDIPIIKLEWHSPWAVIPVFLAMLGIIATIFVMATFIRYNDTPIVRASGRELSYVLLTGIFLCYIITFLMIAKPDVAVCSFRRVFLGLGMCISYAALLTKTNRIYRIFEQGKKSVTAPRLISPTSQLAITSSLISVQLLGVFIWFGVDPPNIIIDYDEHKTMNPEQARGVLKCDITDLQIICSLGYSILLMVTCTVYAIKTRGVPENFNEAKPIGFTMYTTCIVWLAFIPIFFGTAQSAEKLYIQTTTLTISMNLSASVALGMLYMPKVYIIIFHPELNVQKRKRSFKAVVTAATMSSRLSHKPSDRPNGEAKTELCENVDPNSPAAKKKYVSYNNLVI

[3] = Late stage results for the probe development effort to identify inhibitors of Plasmodium falciparum gametocytes: Luminescence-based cell-based high throughput dose response assay to identify inhibitors of viability of late stage Plasmodium falciparum gametocytes.

IC50 [1]: > 100 µM (active)
SMILES: Oc1ccccc1/C=N/c1c(-c2ccco2)nc2ccccn12
CC50 (Vero): > 40 µM (active)

EC50 [2]: 10 µM (active)
SMILES: CCn1c(C)cc(C(=O)CSc2ccc(NC(C)=O)cc2)c1C

SMILES: O=C(Nc1nccs1)c1cn(-c2ccccc2)nc1-c1ccc(F)cc1
IC50 [3]: > 74.4 µM (inactive)
